Source: US20070128217A1 (priority 2003, published 2007)

Assays:
[1] = test system: recombinant human anti-SARS-CoV antibody 03-018; assay type: binding; set-up: Binding of antibody 03-018 to linear peptides of the N protein of SARS-CoV Urbani / Binding of antibody 03-018 to looped/cyclic peptides of the N protein of SARS-CoV Urbani: unit not given here
[2] = test system: control sera (pooled serum of ten healthy LUMC hospital workers; commercial negative donor pooled serum from the Dutch bloodbank); assay type: binding, human; set-up: Binding of Control serum LUMC to linear peptides / Binding of Control serum Blood-bank to linear peptides / Binding of Control serum LUMC to looped peptides / Binding of Control Serum Blood-Bank to Looped peptides / Binding of Control serum LUMC to linear peptides of the protein M of SARS-CoV Urbani / Binding of Control serum Blood-bank to linear peptides of the protein M of SARS-CoV Urbani / Binding of Control serum LUMC to looped peptides of the protein M of SARS-CoV Urbani / Binding of Control Serum Blood-Bank to Looped peptides of the protein M of SARS-CoV Urbani: unit not given here
[3] = test system: rabbit serum obtained by immunizing a rabbit with the SARS-CoV strain Frankfurt 1; assay type: binding; set-up: Binding of a rabbit serum to linear peptides / Binding of a rabbit serum to looped peptides / Rabbit serum linear peptides / Rabbit serum looped peptides / Binding of a rabbit serum to linear peptides of protein N of SARS-CoV Urbani (Rabbit serum linear peptides) / Binding of a rabbit serum to looped/cyclic peptides of protein N of SARS-CoV Urbani (Rabbit serum looped peptides): unit not given here
[4] = test system: antibodies in sera from SARS patients (sera 1a, 1b, 2, 6, 37, 62, London, SARS-yellow, SARS-green); assay type: binding, human; set-up: Binding of serum 6 to linear peptides of protein X1 of SARS-CoV Urbani / Binding of serum 37 to linear peptides of protein X1 of SARS-CoV Urbani / Binding of serum 6 to looped/cyclic peptide (PEPSCAN-ELISA) / Binding of serum 37 to looped/cyclic peptide (PEPSCAN-ELISA) / Binding of serum 37 to looped/cyclic peptides of protein X1 of SARS-CoV Urbani / Binding of serum 6 to linear peptides of protein X2 / Binding of serum 37 to linear peptides of protein X2 / Binding of serum 37 to looped/cyclic peptides of protein X2 of SARS-CoV Urbani / Binding of serum 6 to linear peptides of protein M of SARS-CoV Urbani / Binding of serum 37 to linear peptides of protein M of SARS-CoV Urbani / Binding of serum 6 to looped/cyclic peptides of protein M of SARS-CoV Urbani / Binding of serum 37 to looped/cyclic peptides of protein M of SARS-CoV Urbani / Binding of serum 6 to linear peptides of protein X3 of SARS-CoV Urbani / Binding of serum 37 to linear peptides of protein X3 of SARS-CoV Urbani / Binding of serum 37 to looped/cyclic peptides of protein X3 of SARS-CoV Urbani / Binding of serum 6 to linear peptides of protein X4 of SARS-CoV Urbani / Binding of serum 37 to linear peptides of protein X4 of SARS-CoV Urbani / Binding of serum 37 to looped/cyclic peptides of protein X4 of SARS-CoV Urbani / Binding of serum 6 to linear peptides of protein X5 of SARS-CoV Urbani / Binding of serum 37 to linear peptides of protein X5 of SARS-CoV Urbani / Binding of serum 37 to looped/cyclic peptides of protein X5 of SARS-CoV Urbani / Binding of serum 6 to linear peptides of protein N of SARS-CoV Urbani / Binding of serum 37 to linear peptides of protein N of SARS-CoV Urbani / Binding of serum 6 to linear peptide (PEPSCAN-ELISA) / Binding of serum 1a to looped/cyclic peptides of protein N of SARS-CoV Urbani / Binding of serum 1b to looped/cyclic peptides of protein N of SARS-CoV Urbani / Binding of serum 2 to looped/cyclic peptides of protein N of SARS-CoV Urbani / Binding of serum 6 to looped/cyclic peptides of protein N of SARS-CoV Urbani / Binding of serum 37 to looped/cyclic peptides of protein N of SARS-CoV Urbani / Binding of serum 62 to looped/cyclic peptides of protein N of SARS-CoV Urbani / Binding of serum London to looped/cyclic peptides of protein N of SARS-CoV Urbani / Binding of serum SARS-green to looped/cyclic peptides of protein N of SARS-CoV Urbani: unit not given here

LLLLDRLNQLESKVS
Binding of antibody 03-018 to linear peptides of the N protein of SARS-CoV Urbani [1]: 0.2 | Binding of antibody 03-018 to looped/cyclic peptides of the N protein of SARS-CoV Urbani [1]: 0.2 | Binding of Control Serum Blood-Bank to Looped peptides [2]: 0.4 | Binding of Control serum Blood-bank to linear peptides [2]: 0.7 | Binding of Control serum LUMC to linear peptides [2]: 0.6 | Binding of Control serum LUMC to looped peptides [2]: 0.4 | Binding of a rabbit serum to linear peptides of protein N of SARS-CoV Urbani (Rabbit serum linear peptides) [3]: 0.1 | Binding of a rabbit serum to looped/cyclic peptides of protein N of SARS-CoV Urbani (Rabbit serum looped peptides) [3]: 0.0 | Binding of serum 1a to linear peptide (PEPSCAN-ELISA) [4]: 0.2 | Binding of serum 1a to looped/cyclic peptides of protein N of SARS-CoV Urbani [4]: 0.2 | Binding of serum 1b to linear peptide (PEPSCAN-ELISA) [4]: 0.1 | Binding of serum 1b to looped/cyclic peptides of protein N of SARS-CoV Urbani [4]: 0.1 | Binding of serum 2 to linear peptide (PEPSCAN-ELISA) [4]: 0.2 | Binding of serum 2 to looped/cyclic peptides of protein N of SARS-CoV Urbani [4]: 0.2 | Binding of serum 6 to linear peptide (PEPSCAN-ELISA) [4]: 0.1 | Binding of serum 6 to looped/cyclic peptides of protein N of SARS-CoV Urbani [4]: 0.1 | Binding of serum 37 to linear peptide (PEPSCAN-ELISA) [4]: 0.7 | Binding of serum 37 to looped/cyclic peptides of protein N of SARS-CoV Urbani [4]: 0.4 | Binding of serum 62 to linear peptide (PEPSCAN-ELISA) [4]: 0.4 | Binding of serum 62 to looped/cyclic peptides of protein N of SARS-CoV Urbani [4]: 0.2 | Binding of serum London to linear peptide (PEPSCAN-ELISA) [4]: 0.7 | Binding of serum London to looped/cyclic peptides of protein N of SARS-CoV Urbani [4]: 0.3 | Binding of serum SARS-green to linear peptide (PEPSCAN-ELISA) [4]: 0.4 | Binding of serum SARS-green to looped/cyclic peptides of protein N of SARS-CoV Urbani [4]: 0.2 | Binding of serum SARS-yellow to linear peptide (PEPSCAN-ELISA) [4]: 0.4 | Binding of serum SARS-yellow to looped/cyclic peptides of protein N of SARS-CoV Urbani [4]: 0.0

DQIGYYRRATRRVRG
Binding of antibody 03-018 to linear peptides of the N protein of SARS-CoV Urbani [1]: 0.1 | Binding of antibody 03-018 to looped/cyclic peptides of the N protein of SARS-CoV Urbani [1]: 0.3 | Binding of Control Serum Blood-Bank to Looped peptides [2]: 0.8 | Binding of Control serum Blood-bank to linear peptides [2]: 0.8 | Binding of Control serum LUMC to linear peptides [2]: 0.7 | Binding of Control serum LUMC to looped peptides [2]: 0.7 | Recognition of the peptide by the rabbit serum [3]: recognized | Binding of serum 1a to linear peptides of protein N of SARS-CoV Urbani [4]: 0.2 | Binding of serum 1a to looped/cyclic peptides of protein N of SARS-CoV Urbani [4]: 0.3 | Binding of serum 1b to linear peptides of protein N of SARS-CoV Urbani [4]: 0.1 | Binding of serum 1b to looped/cyclic peptides of protein N of SARS-CoV Urbani [4]: 0.2 | Binding of serum 2 to linear peptides of protein N of SARS-CoV Urbani [4]: 0.3 | Binding of serum 2 to looped/cyclic peptides of protein N of SARS-CoV Urbani [4]: 0.5 | Binding of serum 6 to linear peptides of protein N of SARS-CoV Urbani [4]: 0.2 | Binding of serum 6 to looped/cyclic peptides of protein N of SARS-CoV Urbani [4]: 0.3 | Binding of serum 37 to linear peptides of protein N of SARS-CoV Urbani [4]: 0.7 | Binding of serum 37 to looped/cyclic peptides of protein N of SARS-CoV Urbani [4]: 0.9 | Binding of serum 62 to linear peptides of protein N of SARS-CoV Urbani [4]: 0.6 | Binding of serum 62 to looped/cyclic peptides of protein N of SARS-CoV Urbani [4]: 0.8 | Binding of serum London to linear peptides of protein N of SARS-CoV Urbani [4]: 0.5 | Binding of serum London to looped/cyclic peptides of protein N of SARS-CoV Urbani [4]: 0.5 | Binding of serum SARS-green to linear peptides of protein N of SARS-CoV Urbani [4]: 0.4 | Binding of serum SARS-green to looped/cyclic peptides of protein N of SARS-CoV Urbani [4]: 0.6 | Binding of serum SARS-yellow to linear peptides of protein N of SARS-CoV Urbani [4]: 0.6 | Binding of serum SARS-yellow to looped/cyclic peptides of protein N of SARS-CoV Urbani [4]: 0.7

PQGLPNNTASWFTAL
Binding of antibody 03-018 to linear peptides of the N protein of SARS-CoV Urbani [1]: 0.1 | Binding of antibody 03-018 to looped/cyclic peptides of the N protein of SARS-CoV Urbani [1]: 0.3 | Binding of Control Serum Blood-Bank to Looped peptides [2]: 0.9 | Binding of Control serum Blood-bank to linear peptides [2]: 0.7 | Binding of Control serum LUMC to linear peptides [2]: 0.7 | Binding of Control serum LUMC to looped peptides [2]: 0.9 | Binding of a rabbit serum to linear peptides of protein N of SARS-CoV Urbani (Rabbit serum linear peptides) [3]: 0.1 | Binding of a rabbit serum to looped/cyclic peptides of protein N of SARS-CoV Urbani (Rabbit serum looped peptides) [3]: 0.6 | Binding of serum 1a to linear peptides of protein N of SARS-CoV Urbani [4]: 0.2 | Binding of serum 1a to looped/cyclic peptides of protein N of SARS-CoV Urbani [4]: 0.5 | Binding of serum 1b to linear peptides of protein N of SARS-CoV Urbani [4]: 0.1 | Binding of serum 1b to looped/cyclic peptides of protein N of SARS-CoV Urbani [4]: 0.3 | Binding of serum 2 to linear peptides of protein N of SARS-CoV Urbani [4]: 0.2 | Binding of serum 2 to looped/cyclic peptides of protein N of SARS-CoV Urbani [4]: 0.6 | Binding of serum 6 to linear peptides of protein N of SARS-CoV Urbani [4]: 0.1 | Binding of serum 6 to looped/cyclic peptides of protein N of SARS-CoV Urbani [4]: 0.3 | Binding of serum 37 to linear peptides of protein N of SARS-CoV Urbani [4]: 0.7 | Binding of serum 37 to looped/cyclic peptides of protein N of SARS-CoV Urbani [4]: 1.0 | Binding of serum 62 to linear peptides of protein N of SARS-CoV Urbani [4]: 0.7 | Binding of serum 62 to looped/cyclic peptides of protein N of SARS-CoV Urbani [4]: 0.9 | Binding of serum London to linear peptides of protein N of SARS-CoV Urbani [4]: 0.4 | Binding of serum London to looped/cyclic peptides of protein N of SARS-CoV Urbani [4]: 0.6 | Binding of serum SARS-green to linear peptides of protein N of SARS-CoV Urbani [4]: 0.2 | Binding of serum SARS-green to looped/cyclic peptides of protein N of SARS-CoV Urbani [4]: 0.4 | Binding of serum SARS-yellow to linear peptides of protein N of SARS-CoV Urbani [4]: 0.5 | Binding of serum SARS-yellow to looped/cyclic peptides of protein N of SARS-CoV Urbani [4]: 0.9

PSGTWLTYHGAIKLD
Binding of antibody 03-018 to linear peptides of the N protein of SARS-CoV Urbani [1]: 0.1 | Binding of antibody 03-018 to looped/cyclic peptides of the N protein of SARS-CoV Urbani [1]: 0.2 | Control Serum Blood-Bank Looped peptides [2]: 0.4 | Control serum Blood-bank linear peptides [2]: 0.7 | Control serum LUMC linear peptides [2]: 0.6 | Control serum LUMC looped peptides [2]: 0.4 | Binding of a rabbit serum to linear peptides of protein N of SARS-CoV Urbani (Rabbit serum linear peptides) [3]: 0.1 | Binding of a rabbit serum to looped/cyclic peptides of protein N of SARS-CoV Urbani (Rabbit serum looped peptides) [3]: 0.0 | Binding of serum 1a to linear peptides of protein N of SARS-CoV Urbani [4]: 0.3 | Binding of serum 1a to looped/cyclic peptides of protein N of SARS-CoV Urbani [4]: 0.2 | Binding of serum 1b to linear peptides of protein N of SARS-CoV Urbani [4]: 0.2 | Binding of serum 1b to looped/cyclic peptides of protein N of SARS-CoV Urbani [4]: 0.1 | Binding of serum 2 to linear peptides of protein N of SARS-CoV Urbani [4]: 0.2 | Binding of serum 2 to looped/cyclic peptides of protein N of SARS-CoV Urbani [4]: 0.2 | Binding of serum 6 to linear peptides of protein N of SARS-CoV Urbani [4]: 0.2 | Binding of serum 6 to looped/cyclic peptides of protein N of SARS-CoV Urbani [4]: 0.1 | Binding of serum 37 to linear peptides of protein N of SARS-CoV Urbani [4]: 1.0 | Binding of serum 37 to looped/cyclic peptides of protein N of SARS-CoV Urbani [4]: 0.4 | Binding of serum 62 to linear peptides of protein N of SARS-CoV Urbani [4]: 0.8 | Binding of serum 62 to looped/cyclic peptides of protein N of SARS-CoV Urbani [4]: 0.3 | Binding of serum London to linear peptides of protein N of SARS-CoV Urbani [4]: 0.7 | Binding of serum London to looped/cyclic peptides of protein N of SARS-CoV Urbani [4]: 0.3 | Binding of serum SARS-green to linear peptides of protein N of SARS-CoV Urbani [4]: 0.6 | Binding of serum SARS-green to looped/cyclic peptides of protein N of SARS-CoV Urbani [4]: 0.1 | Binding of serum SARS-yellow to linear peptides of protein N of SARS-CoV Urbani [4]: 0.7 | Binding of serum SARS-yellow to looped/cyclic peptides of protein N of SARS-CoV Urbani [4]: 0.1
